We go through four molecules from ChEMBL document CHEMBL1147519, “N-[18F]fluoroethylpiperidin-4-ylmethyl butyrate: a novel radiotracer for quantifying brain butyrylcholinesterase activity by positron emission tomography” (Bioorg Med Chem Lett, 2004).

The species named for one series is Homo sapiens. Nature of the series: The estimated hydrolysis rate in the human cerebral cortex. It is filed as functional.
Series [1] is described as follows: Partition coefficient (logD). As to conditions: octanol/water. It is filed as physicochemical.
A short description of series [2]: Partition coefficient (logD) (octanol/phosphate buffer). In kind it is physicochemical.
The target of series [3] is Cholinesterase (Homo sapiens) (UniProt P06276). Kind of series: Specificity to butyrylcholinesterase.
Chain of Cholinesterase (Homo sapiens) (P06276 whole entry): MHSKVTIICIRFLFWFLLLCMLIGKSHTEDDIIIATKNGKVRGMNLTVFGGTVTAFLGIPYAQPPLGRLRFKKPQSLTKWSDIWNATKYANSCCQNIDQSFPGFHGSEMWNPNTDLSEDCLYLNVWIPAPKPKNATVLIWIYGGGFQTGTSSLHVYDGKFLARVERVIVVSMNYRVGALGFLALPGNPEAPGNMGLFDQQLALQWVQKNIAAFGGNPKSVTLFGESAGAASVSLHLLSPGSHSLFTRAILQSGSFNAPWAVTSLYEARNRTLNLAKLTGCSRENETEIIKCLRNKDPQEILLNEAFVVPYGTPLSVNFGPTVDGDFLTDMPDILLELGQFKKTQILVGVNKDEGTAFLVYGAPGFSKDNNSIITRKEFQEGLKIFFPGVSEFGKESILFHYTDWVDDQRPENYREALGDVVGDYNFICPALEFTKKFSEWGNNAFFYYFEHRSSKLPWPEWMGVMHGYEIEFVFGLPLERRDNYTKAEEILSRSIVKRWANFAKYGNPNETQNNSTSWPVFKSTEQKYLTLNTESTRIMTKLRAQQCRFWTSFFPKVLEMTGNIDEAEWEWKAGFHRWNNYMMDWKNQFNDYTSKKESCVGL

For orientation: logD means lipophilicity at a set pH, counting ionised and neutral species. Low values mean a more hydrophilic compound, high ones a more lipophilic compound. Regarding `CC(=O)OC1CCN(C)CC1`, the Total rate in the series filed under Homo sapiens was 0.16 g⁻¹ min⁻¹ mL⁻¹. Also, the logD in series [1] is -0.3; in series [2] it was -2.2.
In the case of `CCC(=O)OC1CCN(C)CC1`, the Total rate in the series listed under Homo sapiens was 0.035 g⁻¹ min⁻¹ mL⁻¹. Further, the logD in series [1] is -0.22; in series [2], -2.2.
As for `CCCC(=O)OCC1CCN(CCF)CC1`, the Total rate in the series filed under Homo sapiens is 0.2 g⁻¹ min⁻¹ mL⁻¹. This molecule also came in with a Specificity in series [3] of 98%. The logD in series [1] is 0.62; in series [2] it was -1.3.
In the same order, the values of `CCCC(=O)OC1CCN(C)CC1` are 0.033 g⁻¹ min⁻¹ mL⁻¹, 98%, 0.21 and -2.2.
